From patent US10058524B2, “Methods for improving joint function” (Tersus Life Sciences, LLC, priority 2015, dated 2018)

How the values were obtained:
Format in all cases: in vivo
Human Subjects [1] = experiment: Stepmill Protocol: time of onset and offset of knee discomfort
Protocol: The study duration was thirty-seven (37) days with a total of 4 visits per subject. The initial screening visit (Visit 1) occurred 7 days prior to the initiation of the study (Day −7). Subjects arrived in the clinic having fasted for 10 hours in preparation for Visit 1. Subjects underwent the informed consent process and were screened for the presence of all the inclusion criteria and the absence of all the exclusion criteria. The screening process also included taking a detailed medical history, recording prior and concomitant medications, performing a physical examination, and documenting vital signs, and anthropometric measures. To determine eligibility, subjects continuously used the Stepmill at a set rate for 10 minutes until they complained of knee discomfort (in at least one knee) that scored at least 5 on an 11 point numeric pain rating scale. The time of onset of joint pain was recorded. Subjects were also instructed to inform the clinician when their discomfort began to subside and when their discomfort completely resolved.
Baseline assessments included evaluating the pain or discomfort experienced by subjects during exercise testing. Subjects were instructed to exercise on a StepMill® model 7000PT (StairMaster® Health & Fitness Products, Inc., Kirkland, Wash.) at a set rate (Level 4) for 10 minutes. The following knee discomfort measures were recorded from the beginning of the Stepmill test: (1) time of onset of initial joint pain; (2) time of onset of maximum joint pain; (3) time at which initial improvement in knee joint pain was achieved; and (4) time of complete recovery from knee joint pain. Subjects that reported a discomfort level of 5 on an 11 point (0-10) Likert scale in at least one knee within the 10-minute period were selected. Once the requisite pain level was achieved, the subject was asked to continue stepping for an additional two minutes in order to record the maximum pain level reached before disembarking from the stepmill. Subjects who experienced a pain score of 5 (or greater) within one minute of starting the stress test were excluded.
(§1) Subjects who met all of the study inclusion criteria and none of the exclusion criteria were randomly assigned to either the C16:1n7-palmitoleate-treatment or placebo groups. The C16:1n7-palmitoleate composition included palmitoleic acid, gelatin, glycerin and purified water whereas the placebo included medium chain triglycerides. […] The subjects and the clinical staff were unaware of what group a particular subject was allocated to. Baseline assessments for joint pain and knee range of motion in a subject were obtained via the 6-Minute Timed Walk, Stepmill Protocol, and goniometry. At the end of the visit, subjects were provided with a 7-day supply of the C16:1n7-palmitoleate composition or placebo and daily dosing diaries. Subjects were instructed to ingest a single capsule of the C16:1n7-palmitoleate composition or the placebo per day.
(§2) Subjects returned to the clinic at Visit 3 (Day 7) for repeat assessments of joint pain, range of motion, activity levels and health-related quality of life scores. After the performance-based physical functioning measures were evaluated, the subjects were provided with a 23-day supply of the C16:1n7-palmitoleate composition or placebo. Subjects returned to the clinic at Visit 4 (Day 30), which marked the end of the study, for reevaluation of the performance-based physical functioning measures.
The time of onset of discomfort or pain level refers to the time at which the minimum or maximum discomfort or pain level is reached. The time of onset of minimum discomfort or pain level refers to the time at which minimum discomfort or pain level is reached. The time of onset of maximum discomfort or pain level refers to the time at which maximum discomfort or pain level is reached.
As used herein, the time of offset of discomfort is the time at which a level of relief is reached after performing the Stepmill Protocol described herein. […]

Human Subjects [2] = experiment: 6-Minute Timed Walk; settings: between treated and placebo groups, any time point
Protocol: Other performance-based physical functioning measures including the 6-Minute Timed Walk and Knee Range of Motion (ROM) were also performed by the subjects. In the 6-Minute Timed Walk, subjects walked up and down a hallway for 6 minutes and were instructed to walk as rapidly as possible within their comfort zone, and as rapidly as possible without causing themselves any pain.
as §1, with “At the end of the visit, subjects were provided with a 7-day supply of the C16:1n7-palmitoleate composition or placebo and daily dosing diaries. Subjects were instructed to ingest a single capsule of the C16:1n7-palmitoleate composition or the placebo per day.” left out
as §2, with “Subjects returned to the clinic at Visit 4 (Day 30), which marked the end of the study, for reevaluation of the performance-based physical functioning measures.” left out

Human Subjects [3] = experiment: Knee range of motion by goniometry (extension and flexion)
Text: (§3) Goniometry was used to measure knee range of motion. To measure Knee Extension, subjects were instructed to extend the left or right knee to full extension without changing the position of their pelvis and lumbar spine. An inclinometer was placed along the subject's shin so as to document the range of motion in degrees. To measure Knee Flexion, subjects were asked to lie on their stomach with their shins off the end of the table, and were instructed to fully extend their knees. The subject was then asked to actively flex his/her knee to a full flexion position. The following scales and questionnaires: Stanford Exercise Behavior Scale—Stretching and Aerobics, Knee-related QOL subscale of KOOS Knee Survey, SF-12, and Knee Discomfort Improvement Scale were completed by the subjects at the initial screening.
as §1, §2
Goniometric measurements, which record the active and passive range of motion in joints like the knee, are often used in evaluating joint function.

Human Subjects [4] = experiment: Stanford Exercise Behavior Scale - Stretching and Aerobics
Text: as §3
Experimental endpoints included Change in Time of Onset and Offset of Discomfort, Changes in 6-Minute Timed Walk, Change in Knee Range of Motion as measured by goniometry including Left and Right Knee Extension and Left and Right Knee Flexion. Stanford Exercise Scale—Stretching and Aerobics was used to measure the effect of the C16:1n7-palmitoleate composition on physical activity levels.

Human Subjects [5] = experiment: SF-12 survey (physical and mental component scores)
Text: as §3
Quality of life (QOL) was assessed using Change in SF-12 and Knee-related QOL subscale of KOOS Knee Survey, and Knee Discomfort Improvement Scale. The SF-12 is a multipurpose short form survey with 12 questions, all selected from the SF-36 Health Survey. The questions were combined, scored, and weighted to create two scales that provide glimpses into the subject's mental and physical functioning and overall health-related-quality of life. Physical and Mental Health Component Summary Scores were computed using the scores of the twelve questions and a range from 0 to 100, where zero corresponds to the lowest level of health measured by the scales and 100 corresponds to the highest level of health.

Human Subjects [6] = experiment: Knee-related QOL subscale of KOOS Knee Survey
Text: as §3
Knee injury and Osteoarthritis Outcome Score (KOOS) is an instrument to assess the patients' opinion about their knee and knee-associated problems. For this study, only the Knee Related QOL subscale was used.

Human Subjects [7] = experiment: Knee Discomfort Improvement Scale; settings: group n=20
Text: as §3
Knee Discomfort Improvement Scale refers to the response to the question “Is your overall knee discomfort improving?”, rated using a 3-point scale where zero is “Not at All”, 1 is “Moderately” and 2 is “Definitely”.

[8] = between treated and placebo groups, any time point
[9] = within-group, baseline to any time point

CCCCCC/C=C\CCCCCCCC(=O)O [C16:1n7-palmitoleate, palmitoleic acid]
average time to report maximum discomfort or pain level (Human Subjects [1]; after 30 days, placebo 5.43±2.53 minutes): 6.89 ± 2.59 min | time of onset of minimum discomfort or pain level (Human Subjects [1]; between treated and placebo groups): no statistically significant difference | time of offset of maximum discomfort (Human Subjects [1]; [8]): no statistically significant difference | time of offset of minimum discomfort (Human Subjects [1]; [8]): no statistically significant difference | changes in the time of onset of maximum discomfort from Day 0 to Day 30 (Human Subjects [1]; between treated and placebo groups, p=0.007): statistically significant difference | time to reach maximum discomfort or pain level (Human Subjects [1]; between treated and placebo groups, treated taking more time): significantly different | time of onset of minimum discomfort or pain level (Human Subjects [1]; within-group, 7 days vs Day 0, p=0.013, one capsule per day): statistically significant increase | time of onset of minimum discomfort or pain level (Human Subjects [1]; within-group, 30 days vs Day 0, p=0.005, one capsule per day): statistically significant increase | time of onset of maximum discomfort (Human Subjects [1]; within-group, 30 days vs Day 0, p=0.012): significantly increased | time of offset of maximum discomfort (Human Subjects [1]; within-group, 30 days vs Day 0, p=0.014): decrease | time of minimum offset of discomfort (Human Subjects [1]; [9]): no statistically significant changes | distance covered during the 6-minute timed walk (Human Subjects [2]): no statistically significant difference | change in left knee flexion (Human Subjects [3]; after 7 days of supplementation): apparent | right knee extension (Human Subjects [3]; [8]): no statistically significant difference | right knee flexion (Human Subjects [3]; [8]): no statistically significant difference | left knee flexion (Human Subjects [3]; within-group, 30 days vs Day 0, p=0.015): significant increase | right knee flexion (Human Subjects [3]; within-group, 30 days vs Day 0, p=0.019): significant increase | left knee extension (Human Subjects [3]; within-group, 30 days vs Day 0, p=0.028): significant increase | right knee extension (Human Subjects [3]; [9]): no statistically significant changes | average minutes per week for aerobic exercise (Human Subjects [4]; [8]): no statistically significant differences | average minutes per week for stretching exercise (Human Subjects [4]; [8]): no statistically significant differences | time spent stretching (Human Subjects [4]; within-group, after 30 days of supplementation, p=0.066): non-statistically significant yet clinically significant increase | average minutes per week for aerobic exercise (Human Subjects [4]; [9]): no statistically significant changes | mental component score of the SF-12 survey (Human Subjects [5]; [8]): no statistically significant differences | physical component score of the SF-12 survey (Human Subjects [5]; [8]): no statistically significant differences | increase in the physical component score of the SF-12 survey (Human Subjects [5]; within-group, 30 days vs Day 0, p=0.031): 8.93% | mental component score of the SF-12 survey (Human Subjects [5]; [9]): no statistically significant changes | knee-related quality of life scores (Human Subjects [6]; [8]): no statistically significant differences | knee-related quality of life scores (Human Subjects [6]; within-group, Day 7 vs Day 0, p=0.002): increase | knee-related quality of life scores (Human Subjects [6]; within-group, Day 30 vs Day 0, p<0.001): increase | number of subjects that reported moderate improvements in knee discomfort (Human Subjects [7]; Day 0 (baseline)): 4 | number of subjects that reported definite improvements in knee discomfort (Human Subjects [7]; Day 7): 2 | number of subjects that reported moderate improvements in knee discomfort (Human Subjects [7]; Day 7): 10 | number of subjects that reported moderate improvements in knee discomfort (Human Subjects [7]; Day 30): 8 subjects | number of subjects that reported definite improvements in knee discomfort (Human Subjects [7]; Day 30, comparable to placebo): 8
